Test results as given in patent US20120309776A1, “PYRROLO[2,3-D]PYRIMIDINE UREA COMPOUNDS AS JAK INHIBITORS” (Pfitzer Inc., priority 2010, published 2012).

Tested on: T-cell proliferation in canine whole blood (ConA and canine IL-2 stimulated)
Assay: Canine in vitro T-cell Proliferation Assay
Format: cell-based, beagle dogs
Conditions: Canis lupus familiaris, ConA 1 μg/ml + canine IL-2 50 ng/ml, tritiated thymidine incorporation, average assay results
Description: Introduction: T-cell activation plays a key role in a variety of inflammatory and autoimmune disorders as well as asthma, allergies and pruritus. Since T-cell activation can, in part, can be triggered by cytokines that signal through the JAK-STAT pathway, a JAK inhibitor could be effective against such diseases involving aberrant T-cell activation. […] Methods: Canine whole blood is collected in heparin sulfate tubes from beagle dogs. Whole blood (20 μL) is plated in 96-well plates (Costar) with 180 μL of DMEM complete medium (Dublecco's Modified Eagle Medium; 10% heat inactivated fetal bovine serum; 100 u/ml penicillin; 100 ug/mL streptomycin, from Gibco) containing vehicle control or test compound (0.001 to 10 μM), concanavalin A (ConA; 1 μg/ml), and canine interleukin-2 (IL-2; 50 ng/ml). Wells containing whole blood, medium with vehicle control and no ConA or IL-2 are used as background (BKG) controls. Plates are incubated at 37° C. for 48 hrs. Tritiated thymidine, 0.4 μCi/well (Perkin Elmer), is added for 20 additional hours. Plates are frozen and then thawed, washed and filtered using a Brandel MLR-96 cell harvester and prewet filter mats (Wallac 1205-401, Perkin Elmer). Filters are dried at 60° C. for one hour (Precision 16EG convection oven) and placed into filter sample bags (Wallac 1205-411, Perkin Elmer) with 10 mL of scintillant (Wallac 1205-440, Perkin Elmer). Sealed filters are counted on a LKB Wallac 1205 Betaplate liquid scintillation counter. Data are collected via Gterm Betaplate program v1.1 (Wallac copyright 1989-1990) and transformed into percent inhibition, calculated using the following formula: […]

## CSc1nc(NC(=O)N2CC[C@@H](C)[C@@H](N(C)c3ncnc4[nH]ccc34)C2)n(C)n1 [Example 4, (3R,4R)-4-methyl-N-[1-methyl-3-(methylsulfanyl)-1H-1,2,4-triazol-5-yl]-3-[methyl(7H-pyrrolo[2,3-d]pyrimidin-4-yl)amino]piperidine-1-carboxamide]
  IC50: > 10000 nM

## C[C@@H]1CCN(C(=O)Nc2nncs2)C[C@@H]1N(C)c1ncnc2[nH]ccc12 [Example 1, (3R,4R)-4-methyl-3-[methyl(7H-pyrrolo[2,3-d]pyrimidin-4-yl)amino]-N-(1,3,4-thiadiazol-2-yl)piperidine-1-carboxamide]
  IC50: 28.5 nM

## Cc1noc(NC(=O)N2CC[C@@H](C)[C@@H](N(C)c3ncnc4[nH]ccc34)C2)c1C#N [Example 3, (3R,4R)-N-(4-cyano-3-methylisoxazol-5-yl)-4-methyl-3-[methyl(7H-pyrrolo[2,3-d]pyrimidin-4-yl)amino]piperidine-1-carboxamide]
  IC50: > 10000 nM

## COc1nsc(NC(=O)N2CC[C@@H](C)[C@@H](N(C)c3ncnc4[nH]ccc34)C2)n1 [Example 2, (3R,4R)-N-(3-methoxy-1,2,4-thiadiazol-5-yl)-4-methyl-3-[methyl(7H-pyrrolo[2,3-d]pyrimidin-4-yl)amino]piperidine-1-carboxamide]
  IC50: 50 nM
